Measurements taken from the NIST ThermoML archive (doi:10.1021/je8003832).

Tests used:
[1] = 101 kPa, Liquid
[2] = xn = mol fraction of the nth substance listed; conditions: 101 kPa, Liquid, x1 = 1

CCCCn1cc[n+](C)c1.O=S(=O)([O-])C(F)(F)F [1-butyl-3-methylimidazolium trifluoromethanesulfonate]
[1]
Conditions	mass density [kg/m3]	viscosity [mPa·s]
303.15 K	1298.4	63.19
308.15 K	1294.9	51.73
313.15 K	1291.4	42.46
318.15 K	1287.8	35.17
323.15 K	1284.4	29.55
333.15 K	1277.4	21.61
343.15 K	1270.5	16.38

O [water] + CCCCn1cc[n+](C)c1.O=S(=O)([O-])C(F)(F)F
[2]
Conditions	mass density [kg/m3]	viscosity [mPa·s]
303.15 K	–	0.7977
308.15 K	–	0.719
313.15 K	–	0.6532
318.15 K	–	0.6001
323.15 K	–	0.547
333.15 K	983.2	0.4665
343.15 K	977.8	0.404
